Experiments:
[1] = tested on: soil-derived propane-consuming mixed culture; assay: TCE cometabolism and biomass production of mixed culture after acetylene exposure; format: cell-based, mixed culture enriched from an uncontaminated soil; settings: for TCE consumption rate: 5% v/v acetylene, 50 μM TCE
Text: (§1) Aerobic cometabolism of TCE is a viable methodology for TCE removal in large diffuse contaminant plumes. A pure culture of the known aerobic cometabolic TCE degrader, Mycobacterium austroafricanum JOB5 (formerly known as Mycobacterium vaccae JOB5) and a mixed culture enriched from an uncontaminated soil in mineral medium using propane and oxygen as growth substrates were used to test the efficiency of acetylene in reducing biomass growth rate (e.g., a proxy for bioclogging). The mixed culture was created through serial transfers from the original soil microcosms.
(§2) The pure and mixed cultures were then exposed to 50 μM TCE to verify their capacity to aerobically cometabolically degrade TCE. Once their capability to degrade TCE was verified, both cultures were grown in 2 L bottles and fed oxygen and propane until the optical density at 600 nm stabilized at ˜0.2 for multiple days. Then, the two cultures were exposed to acetylene at 5% v/v for varying lengths of time (no exposure (0), 1, 2, 4 and 8 days). The dissolved acetylene concentration in the 2 L bottles was 2.2 mmol/L.
(§3) After the set acetylene exposure time, culture was extracted, and triplicate bottles were started with 50 μM TCE and a pure oxygen headspace. The cultures were then monitored for propane (residual and added) and oxygen consumption, TCE degradation, carbon dioxide production, biomass production, and pH change.

[2] = tested on: Mycobacterium austroafricanum JOB-5 (JOB-5) and a mixed culture, named COMET1; assay: Soil columns with contaminated site soil and groundwater, flow through mode, acetylene-containing groundwater; design: species or system Mycobacterium austroafricanum JOB-5 and COMET1 mixed culture; settings: soil columns, propane fed and acetylene inhibited, two three-hour pulses per day at 0.2 mL/min
Method: Groundwater was pumped at a 2-Day HRT (0.2 mL/min) from six pumps programmed to automatically turn on and turn off to deliver groundwater of varying chemistries to the soil columns. For the Propane-Fed (pumps 2-3) and the Propane-Fed and Acetylene-Inhibited treatments (pumps 4-6) which had multiple pumps feeding into one line PVC plastic check valves were installed at line splitting locations to avoid backflow to other feeder bags when pumps automatically started or stopped pumping according to the schedule presented in FIG. 5.
Acetylene or propane from a gas tank was bubbled into groundwater in a closed container in the lab. That groundwater was then pumped from closed container to a sealable Tedlar bag. The Tedlar bag was then connected to the pump which was controlled by a timer to deliver two three-hour pulses of acetylene containing groundwater at 0.2 mL/min per day. The pump effectively serves as a seal for the Tedlar bag as the tubing is pinched at one location to create suction.
For propane, 0.5 L of propane was bubbled through 10 L water for at least four hours. That propane-containing water was then pumped into a Tedlar bag. For the treatments which received propane-containing water, the water was pumped into the columns at 0.2 mL/min to 6 hrs/day (two three-hour pulses). For acetylene, 0.5 L of acetylene was bubbled through 10 L water for at least four hours. That acetylene-containing water was then pumped into a Tedlar bag. For the treatments which received acetylene-containing water, the water was pumped into the columns at 0.2 mL/min to 6 hrs/day (two three-hour pulses) […]
Phase I involves bioaugmentation in soil columns in batch mode. […] Batches were continued until either propane was not detected in the groundwater or propane consumption slowed. […]
Phase II involves flow through mode. […] These gas syringes were then analyzed for TCE, propane, and acetylene via gas chromatography with flame ionization detection (GC-FID) and for oxygen and carbon dioxide via assessment of a thermal conductivity detector (TCD). […]

[3] = tested on: Mycobacterium austroafricanum JOB5; assay: TCE cometabolism and biomass production of pure culture after acetylene exposure; format: cell-based; settings: for TCE consumption rate: 5% v/v acetylene, 50 μM TCE
Text: as §1, §2, §3

[4] = as acetylene exposure times increased (1-8 days), 5% v/v

**Q.** Which “rate of TCE degradation” value [1, 4] does the source give for `C#C` [acetylene] here?
**A.** decreased

**Q.** What about the “rate of biomass production (optical density)” value [1, 4] of the same molecule?
**A.** decreased

**Q.** What about the TCE consumption rate ([1]; day 1 of acetylene exposure) of the same molecule?
**A.** 0.45 μmol TCE/(L day)

**Q.** What about the TCE consumption rate ([1]; day 2 of acetylene exposure) of the same molecule?
**A.** 0.54 μmol TCE/(L day)

**Q.** And the TCE consumption rate ([1]; day 4 of acetylene exposure)?
**A.** 0.52 μmol TCE/(L day)

**Q.** And the TCE consumption rate ([1]; day 8 of acetylene exposure)?
**A.** 0.25 μmol TCE/(L day)

**Q.** And the “TCE degradation (cumulative TCE removal)” value [2]?
**A.** slowed

**Q.** And the “biomass production (total organic carbon as proxy)” value [2]?
**A.** slowed

**Q.** What about the “propane consumption (cumulative)” value [2] of the same molecule?
**A.** slowed

**Q.** What about the “rate of TCE degradation” value [3, 4] of the same molecule?
**A.** decreased

**Q.** What about the “rate of biomass production (optical density)” value [3, 4] of the same molecule?
**A.** decreased

**Q.** And the TCE consumption rate ([3]; day 1 of acetylene exposure)?
**A.** 0.42 μmol TCE/(L day)

**Q.** And the TCE consumption rate ([3]; day 2 of acetylene exposure)?
**A.** 0.63 μmol TCE/(L day)

**Q.** What about the TCE consumption rate ([3]; day 4 of acetylene exposure) of the same molecule?
**A.** 0.36 μmol TCE/(L day)

**Q.** What about the TCE consumption rate ([3]; day 8 of acetylene exposure) of the same molecule?
**A.** 0.07 μmol TCE/(L day)

— US20250178051A1, “METHODS OF CONTROLLING MICROBIOLOGICAL PROCESSES FOR IN SITU CONTAMINANT TREATMENT” (priority 2022, published 2025)
